Test results: article PMC6888270 (International Journal of Molecular Sciences, 2019)
Square brackets hold non-standard residues; d marks the D form. Peptide text beside a SMILES is read from it. Phe(4-Cl) = N[C@@H](Cc1ccc(Cl)cc1)C(=O)O; d2Nal = N[C@H](Cc1ccc2ccccc2c1)C(=O)O; d(hCit) = NC(=O)NCCCC[C@@H](N)C(=O)O; Lys(iPr) = CC(C)NCCCC[C@H](N)C(=O)O; d3Pal = N[C@H](Cc1cccnc1)C(=O)O

How the values were obtained:
[1] = target: T1, GnRH receptor (GnRHR) (Homo sapiens, UniProt P30968); assay: BRET measurement of GnRH-induced intracellular Ca2+ increase in SH-SY5Y/GnRHR cells; assay type: cell-based; set-up: HA (hemagglutinin); expressed in transfected cells; conditions: means±SEM, n=6
T1 sequence (P30968 1-328): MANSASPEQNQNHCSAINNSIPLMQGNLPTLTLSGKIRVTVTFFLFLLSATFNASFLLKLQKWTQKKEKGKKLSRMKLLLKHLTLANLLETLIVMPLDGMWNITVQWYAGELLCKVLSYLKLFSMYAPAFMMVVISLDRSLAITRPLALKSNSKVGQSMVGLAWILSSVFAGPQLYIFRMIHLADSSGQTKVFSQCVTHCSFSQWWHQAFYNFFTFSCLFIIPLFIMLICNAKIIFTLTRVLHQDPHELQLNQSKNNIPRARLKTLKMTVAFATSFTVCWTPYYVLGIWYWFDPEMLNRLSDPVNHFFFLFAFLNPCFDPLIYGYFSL
Description: (§1) Different transfection protocols were followed, depending on the endpoint to be measured. For BRET experiments, 3 × 10^4 cells were transiently transfected using vectors expressing the cAMP-CAMYEL or the aequorin-Ca^2+ BRET biosensor-encoding cDNA [59], as appropriate, together with the GnRHR-HA-encoding vector. Transfections were performed in a 96-well plate using the Metafectene PRO reagent (Biontex, München, Germany), as previously described. 100 ng of the receptor-encoding vector + 100 ng of the BRET biosensor-encoding vector were used for co-transfecting HEK293 cells, while SH-SY5Y cells were co-transfected using 200 ng of the receptor-encoding vector + 100 ng of the BRET biosensor-encoding vector. 200 ng of the aequorin-Ca^2+ BRET biosensor-encoding cDNA were used for transfecting LβT2 cells. Each sample was prepared in duplicate, cultured for 48 h and serum-starved over-night before experiments.
(§2) To evaluate Ca^2+ increase, cells were incubated in Hank’s Balanced Salt Solution (HBSS) with Ca^2+ and Mg^2+, 1 mM Hepes and 5 µM Coelenterazine H (NanoLight Technologies, a division of Prolume, Ltd., Pinetop, AZ, USA), for 45 minutes, together with Cetrorelix, Ganirelix, Teverelix or vehicle, as appropriate. […] The EC50 was extrapolated from the curve obtained from each cell line. Cells treated by 5 µM of the sarco/endoplasmic reticulum Ca^2+ ATPase enzyme inhibitor, thapsigargin (Tocris Bioscience), served as positive control. Treatment by the vehicle (HBSS) was the negative control and used as a normalizer.
(§3) BRET experiments were performed using a CLARIOstar plate reader equipped by a monocromator (BMG Labtech, Ortenberg, Germany), as previously described.
(§4) Data were plotted on graphs as means ± standard error of means (SEM). The kinetics of intracellular Ca^2+ increase was represented by the BRET biosensor emission after background subtraction (vehicle). […] Data distributions were analyzed by D’Agostino and Pearson normality tests and inhibition of intracellular Ca^2+ increase by different concentrations of antagonist were compared using two-way analysis of variance (ANOVA), followed by Bonferroni post-test or Kruskal-Wallis and proper post-test. cAMP accumulation was represented as acceptor:donor emission ratio (induced BRET changes) after basal subtraction (untreated cells). Dose-response curves were obtained by data interpolation using non-linear regressions and normalized as percentage of the maximal response. EC50s, as well as half-maximal inhibitory concentrations (IC50), were compared by t-test or Mann–Whitney U test, while results obtained by Western blotting and qRT-PCR data were compared by one-way ANOVA followed by Bonferroni post-test. Statistical differences were considered as significant for p < 0.05. These analyses were performed using the GraphPad Prism software (GraphPad Software Inc., San Diego, CA, USA).

[2] = tested on: Lhb gene expression; assay: Lhb gene expression by qRT-PCR in LβT2 cells; assay type: cell-based, mouse; conditions: 1 µM GnRH + 1 µM antagonist, 24 h, n = 4
Description: LβT2 cells were seeded in 24-well plates (2 × 10^5 cells/well) and cultured for 24 h in DMEM supplemented with 10% Charcoal Stripped FBS, 4.5 g/L glucose, 100 IU/mL penicillin, 0.1 mg/mL streptomycin, and 1 mM glutamine (all from Sigma-Aldrich) before treatments. […] Samples were lysed for RNA extraction using TRIzolTM Reagent (Invitrogen) and equal amounts of total RNA were used for cDNA synthesis performed using the iScript reverse transcriptase (BioRad), as previously described. qRT-PCR was carried out in triplicates on the CFX96TM Real-Time PCR Detection System (BioRad) using the following primers pairs: [NT] for mouse Lhb; [NT] for mouse Gapdh. Primer sequences were drawn using the Mus musculus Lhb (NCBI Reference Sequence: NM_008497.2) and Gapdh (NM_008084.3) mRNAs as templates. Gene expression of Lhb was normalized to mouse Gapdh gene expression using the 2^-ΔΔCt method.

[3] = target: T1, GnRH receptor (GnRHR); assay: BRET measurement of GnRH-induced intracellular Ca2+ increase in HEK293/GnRHR cells; assay type: cell-based; set-up: HA (hemagglutinin); expressed in transfected cells; host or cells: HEK293 (transient co-transfection with BRET biosensor); conditions: means ± SEM, n = 6
Description: as §1, §2, §3, §4

[4] = tested on: β-catenin activation; assay: Immunofluorescence of active β-catenin in HEK293/GnRHR cells; assay type: cell-based, human; conditions: 1 µM GnRH + 1 µM antagonist, 1 h
Description: In order to evaluate the activation of phospho-proteins and β-catenin by Western blotting and immunofluorescence, 1 × 10^5 HEK293 cells were transiently transfected in a 24-well plate. To this purpose, 500 ng of GnRHR-HA-encoding vector diluted in 2 µL/well Lipofectamine® 2000 Transfection Reagent (Invitrogen) were used, according to the manufacturer’s instructions. Transfected HEK293 cells (HEK293/GnRHR) were cultured for 48 h and maintained over-night in serum-free medium before experiments.
3 × 10^4 HEK293/GnRHR and mock-transfected HEK293 cells (negative control) were plated on gelatine-treated slides. […] As a positive control, cells were treated for 16 h with 100 nM of the selective glycogen synthase kinase 3 (GSK3) inhibitor, CHIR99021 (Sigma-Aldrich), which stabilizes free cytosolic β-catenin [68]. After stimulations, cells were washed in PBS with Ca^2+/Mg^2+ and fixed for 20 min in paraformaldehyde 4%/PBS. Cell monolayers were washed by PBS and permeabilized using 0.1% Triton X-100. Samples were incubated in 4% bovine serum albumin (BSA)/PBS, for 1 h at room temperature (RT), before incubation with a mouse primary antibody targeting β-catenin (#05-665, 1:300 dilution in 4% BSA/PBS; Merck KGaA) overnight at 4 °C. Following washing, cells were then incubated with Cy3-conjugated anti-mouse IgG secondary antibody (#C2181, 1:200 dilution in 4% BSA/PBS; Sigma-Aldrich) for 1 h at RT. Cell monolayers were then stained for 10 min with 4′,6-diamidino-2-phenylindole (DAPI) (Sigma-Aldrich) and washed in PBS before slide treatment by polyvinyl alcohol mounting medium with 1,4-diazabicyclo[2.2.2]octane (DABCO®) (Sigma-Aldrich). Fluorescent signals were detected using the Eclipse Ni-E microscope (Nikon Instruments BV, Amsterdam, The Netherlands).

[5] = target: T2, murine GnRHR (mouse (endogenous in LβT2)) (UniProt Q01776)
T2 sequence: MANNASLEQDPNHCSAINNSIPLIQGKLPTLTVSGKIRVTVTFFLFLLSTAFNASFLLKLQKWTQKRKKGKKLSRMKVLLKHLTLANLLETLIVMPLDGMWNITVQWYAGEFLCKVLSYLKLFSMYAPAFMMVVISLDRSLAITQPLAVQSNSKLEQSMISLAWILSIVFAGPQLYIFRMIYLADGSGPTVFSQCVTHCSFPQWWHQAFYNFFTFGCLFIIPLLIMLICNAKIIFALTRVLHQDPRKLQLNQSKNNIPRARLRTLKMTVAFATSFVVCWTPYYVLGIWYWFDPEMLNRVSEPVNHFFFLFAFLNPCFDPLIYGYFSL

[6] = target: Hemagglutinin-tagged GnRHR (GnRHR-HA) (UniProt P30968)

CC(=O)N[C@H](Cc1ccc2ccccc2c1)C(=O)N[C@@H](Cc1ccc(Cl)cc1)C(=O)N[C@H](Cc1cccnc1)C(=O)N[C@@H](CO)C(=O)N[C@H](Cc1ccc(O)cc1)C(=O)N[C@H](CCCCNC(N)=O)C(=O)N[C@@H](CC(C)C)C(=O)N[C@@H](CCCCNC(C)C)C(=O)N1CCC[C@H]1C(=O)N[C@H](C)C(N)=O [Teverelix] (Ac-[d2Nal][Phe(4-Cl)][d3Pal]S[dY][d(hCit)]L[Lys(iPr)]P[dA]-NH2)
AUC of the kinetics of intracellular Ca2+ response ([1]; 3xEC50 GnRH + 1 pM antagonist): 143555±29053
AUC of the kinetics of intracellular Ca2+ response ([1]; 3xEC50 GnRH + 10 pM antagonist): 128010±27347
AUC of the kinetics of intracellular Ca2+ response ([1]; 3xEC50 GnRH + 100 pM antagonist): 110248±22209
AUC of the kinetics of intracellular Ca2+ response ([1]; 3xEC50 GnRH + 1 nM antagonist): 96368±17786
AUC of the kinetics of intracellular Ca2+ response ([1]; 3xEC50 GnRH + 10 nM antagonist): 81812±12486
AUC of the kinetics of intracellular Ca2+ response ([1]; 3xEC50 GnRH + 20 nM antagonist): 38199±10646
AUC of the kinetics of intracellular Ca2+ response ([1]; 3xEC50 GnRH + 100 nM antagonist): 76018±13231
AUC of the kinetics of intracellular Ca2+ response ([1]; 3xEC50 GnRH + 1 uM antagonist): 5686±3292
effect on GnRH-induced Lhb gene expression [2]: inhibited
AUC of the kinetics of intracellular Ca2+ response ([3]; 3 × EC50 GnRH + 1 pM antagonist): 85,301 ± 21,321
AUC of the kinetics of intracellular Ca2+ response ([3]; 3 × EC50 GnRH + 10 pM antagonist): 98,939 ± 27,373
AUC of the kinetics of intracellular Ca2+ response ([3]; 3 × EC50 GnRH + 100 pM antagonist): 58,864 ± 27,101
AUC of the kinetics of intracellular Ca2+ response ([3]; 3 × EC50 GnRH + 1 nM antagonist): 81,702 ± 18,920
AUC of the kinetics of intracellular Ca2+ response ([3]; 3 × EC50 GnRH + 10 nM antagonist): 74,321 ± 17,569
AUC of the kinetics of intracellular Ca2+ response ([3]; 3 × EC50 GnRH + 75 nM antagonist): 42,401 ± 8974
AUC of the kinetics of intracellular Ca2+ response ([3]; 3 × EC50 GnRH + 100 nM antagonist): 29,931 ± 8731
AUC of the kinetics of intracellular Ca2+ response ([3]; 3 × EC50 GnRH + 1 µM antagonist): 4107 ± 3804
effect on GnRH-induced active β-catenin staining [4]: did not result in any decrease of signal

Gonadotropin releasing hormone (GnRH) (from UniProt P01148 24-33) (peptide)
EC50 of GnRH-induced intracellular Ca^2+ accumulation (BRET biosensor), LβT2 cells [5]: 1.8 nM

Ganirelix acetate (peptide)
IC50 of inhibition of 3 × EC50 GnRH-induced cAMP accumulation (CAMYEL BRET), HEK293/GnRHR cells [6]: 0.61 nM
IC50 of inhibition of 3 × EC50 GnRH-induced cAMP accumulation (CAMYEL BRET), SH-SY5Y/GnRHR cells [6]: 16.6 nM

Cetrorelix acetate (peptide)
IC50 of inhibition of 3 × EC50 GnRH-induced cAMP accumulation (CAMYEL BRET), HEK293/GnRHR cells [6]: 0.84 nM
IC50 of inhibition of 3 × EC50 GnRH-induced cAMP accumulation (CAMYEL BRET), SH-SY5Y/GnRHR cells [6]: 1.56 nM

Teverelix (peptide)
IC50 of inhibition of 3 × EC50 GnRH-induced cAMP accumulation (CAMYEL BRET), HEK293/GnRHR cells [6]: 0.49 nM
IC50 of inhibition of 3 × EC50 GnRH-induced cAMP accumulation (CAMYEL BRET), SH-SY5Y/GnRHR cells [6]: 62.8 nM
